Our source for the Kd values is publication PMC7563551, “The Cytokine IL-1β and Piperine Complex Surveyed by Experimental and Computational Molecular Biophysics” (Biomolecules, 2020).

The target in this test is T1, IL-1β (interleukin-1 beta) (Homo sapiens, UniProt P01584).
T1 construct: gene IL1B; 153 residues, single Trp120 and extinction coefficient 11,460 fit the human mature chain; docking model 1ITB chain A
In words: Trp120 fluorescence quenching titration, interaction density function with Scatchard plot. The format is binding. To be noted: read-out: Kb.

T1 sequence (P01584 117-269): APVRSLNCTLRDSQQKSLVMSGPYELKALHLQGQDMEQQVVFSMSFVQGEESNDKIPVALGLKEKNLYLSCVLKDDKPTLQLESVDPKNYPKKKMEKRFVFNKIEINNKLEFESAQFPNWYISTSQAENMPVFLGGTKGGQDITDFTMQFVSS

Consider `O=C(/C=C/C=C/c1ccc2c(c1)OCO2)N1CCCCC1` [piperine], for which the Kd is 6.99 µM.
